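Results reflect a 48-hour exposure of cells in 96-well plates to compound at five concentrations. Abbreviation: GI50, concentration required for 50% inhibition of growth. At the TGI there is no net growth.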
Assays:
Assay in all cases: inhibition of tumour cell growth, NCI panel, 48 h
SK-OV-3 ovarian = test system: SK-OV-3 ovarian
MDA-MB-435 = test system: MDA-MB-435
UO-31 renal = test system: UO-31 renal
MALME-3M melanoma = test system: MALME-3M melanoma
BT-549 breast = test system: BT-549 breast
IGROV1 ovarian = test system: IGROV1 ovarian
LOX IMVI melanoma = test system: LOX IMVI melanoma
SK-MEL-2 melanoma = test system: SK-MEL-2 melanoma
PC-3 prostate = test system: PC-3 prostate
U251 CNS = test system: U251 CNS
T-47D breast = test system: T-47D breast
HS 578T breast = test system: HS 578T breast
KM12 colon = test system: KM12 colon
UACC-257 melanoma = test system: UACC-257 melanoma
MOLT-4 leukemia = test system: MOLT-4 leukemia
NCI/ADR-RES ovarian = test system: NCI/ADR-RES ovarian
M14 melanoma = test system: M14 melanoma
CAKI-1 renal = test system: CAKI-1 renal
HT29 colon = test system: HT29 colon
SNB-75 CNS = test system: SNB-75 CNS
OVCAR-3 ovarian = test system: OVCAR-3 ovarian
NCI-H23 lung = test system: NCI-H23 lung
SW-620 colon = test system: SW-620 colon
MDA-MB-231 breast = test system: MDA-MB-231 breast
HCT-15 colon = test system: HCT-15 colon
OVCAR-5 ovarian = test system: OVCAR-5 ovarian
NCI-H460 lung = test system: NCI-H460 lung
HOP-92 NSCLC = test system: HOP-92 NSCLC
RXF 393 renal = test system: RXF 393 renal
SF-539 CNS = test system: SF-539 CNS
HL-60(TB) leukemia = test system: HL-60(TB) leukemia
COLO 205 colon = test system: COLO 205 colon
ACHN renal = test system: ACHN renal
HOP-62 NSCLC = test system: HOP-62 NSCLC
TK-10 renal = test system: TK-10 renal
K-562 leukemia = test system: K-562 leukemia
EKVX NSCLC = test system: EKVX NSCLC
MCF7 breast = test system: MCF7 breast
HCC-2998 colon = test system: HCC-2998 colon
OVCAR-8 ovarian = test system: OVCAR-8 ovarian
SN12C renal = test system: SN12C renal
786-0 renal = test system: 786-0 renal
A498 renal = test system: A498 renal
OVCAR-4 ovarian = test system: OVCAR-4 ovarian
NCI-H522 lung = test system: NCI-H522 lung
SF-295 CNS = test system: SF-295 CNS
UACC-62 melanoma = test system: UACC-62 melanoma
RPMI-8226 leukemia = test system: RPMI-8226 leukemia
SK-MEL-28 melanoma = test system: SK-MEL-28 melanoma
A549 NSCLC = test system: A549 NSCLC
SNB-19 CNS = test system: SNB-19 CNS
SK-MEL-5 melanoma = test system: SK-MEL-5 melanoma
CCRF-CEM leukemia = test system: CCRF-CEM leukemia
DU-145 prostate = test system: DU-145 prostate

O=C1/C(=C/c2ccccc2)CN(C(=O)CCN2CCC(=NO)CC2)C/C1=C\c1ccccc1
GI50 (SK-OV-3 ovarian): 2510 nM
TGI (SK-OV-3 ovarian): 7090 nM
GI50 (MDA-MB-435): 1420 nM
TGI (MDA-MB-435): 3190 nM
GI50 (UO-31 renal): 1400 nM
TGI (UO-31 renal): 2710 nM
GI50 (MALME-3M melanoma): 2010 nM
TGI (MALME-3M melanoma): 5180 nM
GI50 (BT-549 breast): 1630 nM
TGI (BT-549 breast): 3270 nM
GI50 (IGROV1 ovarian): 1690 nM
TGI (IGROV1 ovarian): 3350 nM
GI50 (LOX IMVI melanoma): 366 nM
TGI (LOX IMVI melanoma): 1410 nM
GI50 (SK-MEL-2 melanoma): 4560 nM
TGI (SK-MEL-2 melanoma): 16200 nM
GI50 (PC-3 prostate): 1520 nM
TGI (PC-3 prostate): 3870 nM
GI50 (U251 CNS): 1510 nM
TGI (U251 CNS): 3490 nM
GI50 (T-47D breast): 2680 nM
TGI (T-47D breast): 7910 nM
GI50 (HS 578T breast): 3090 nM
TGI (HS 578T breast): 14600 nM
GI50 (KM12 colon): 663 nM
TGI (KM12 colon): 2230 nM
GI50 (UACC-257 melanoma): 1920 nM
TGI (UACC-257 melanoma): 4700 nM
GI50 (MOLT-4 leukemia): 686 nM
TGI (MOLT-4 leukemia): 11300 nM
GI50 (NCI/ADR-RES ovarian): 2490 nM
TGI (NCI/ADR-RES ovarian): 8680 nM
GI50 (M14 melanoma): 1500 nM
TGI (M14 melanoma): 3370 nM
GI50 (CAKI-1 renal): 1610 nM
TGI (CAKI-1 renal): 3010 nM
GI50 (HT29 colon): 1210 nM
TGI (HT29 colon): 3610 nM
GI50 (SNB-75 CNS): 2850 nM
TGI (SNB-75 CNS): 11500 nM
GI50 (OVCAR-3 ovarian): 1660 nM
TGI (OVCAR-3 ovarian): 3150 nM
GI50 (NCI-H23 lung): 1890 nM
TGI (NCI-H23 lung): 4280 nM
GI50 (SW-620 colon): 322 nM
TGI (SW-620 colon): 1300 nM
GI50 (MDA-MB-231 breast): 1830 nM
TGI (MDA-MB-231 breast): 3470 nM
GI50 (HCT-15 colon): 1390 nM
TGI (HCT-15 colon): 3270 nM
GI50 (OVCAR-5 ovarian): 1800 nM
TGI (OVCAR-5 ovarian): 3580 nM
GI50 (NCI-H460 lung): 2430 nM
TGI (NCI-H460 lung): 5830 nM
GI50 (HOP-92 NSCLC): 2030 nM
TGI (HOP-92 NSCLC): 6400 nM
GI50 (RXF 393 renal): 1560 nM
TGI (RXF 393 renal): 2960 nM
GI50 (SF-539 CNS): 1910 nM
TGI (SF-539 CNS): 3850 nM
GI50 (HL-60(TB) leukemia): 2590 nM
TGI (HL-60(TB) leukemia): 8330 nM
GI50 (COLO 205 colon): 1680 nM
TGI (COLO 205 colon): 3290 nM
GI50 (ACHN renal): 1850 nM
TGI (ACHN renal): 3910 nM
GI50 (HOP-62 NSCLC): 1790 nM
TGI (HOP-62 NSCLC): 3640 nM
GI50 (TK-10 renal): 2380 nM
TGI (TK-10 renal): 7790 nM
GI50 (K-562 leukemia): 396 nM
TGI (K-562 leukemia): > 100000 nM
GI50 (EKVX NSCLC): 2810 nM
TGI (EKVX NSCLC): 9010 nM
GI50 (MCF7 breast): 355 nM
TGI (MCF7 breast): 1980 nM
GI50 (HCC-2998 colon): 1730 nM
TGI (HCC-2998 colon): 3320 nM
GI50 (OVCAR-8 ovarian): 1310 nM
TGI (OVCAR-8 ovarian): 3290 nM
GI50 (SN12C renal): 1860 nM
TGI (SN12C renal): 4030 nM
GI50 (786-0 renal): 1980 nM
TGI (786-0 renal): 4510 nM
GI50 (A498 renal): 1670 nM
TGI (A498 renal): 3900 nM
GI50 (OVCAR-4 ovarian): 2150 nM
TGI (OVCAR-4 ovarian): 4690 nM
GI50 (NCI-H522 lung): 1600 nM
TGI (NCI-H522 lung): 3360 nM
GI50 (SF-295 CNS): 2080 nM
TGI (SF-295 CNS): 4640 nM
GI50 (UACC-62 melanoma): 1700 nM
TGI (UACC-62 melanoma): 3770 nM
GI50 (RPMI-8226 leukemia): 320 nM
TGI (RPMI-8226 leukemia): 1230 nM
GI50 (SK-MEL-28 melanoma): 2190 nM
TGI (SK-MEL-28 melanoma): 5290 nM
GI50 (A549 NSCLC): 3050 nM
GI50 (SNB-19 CNS): 1830 nM
TGI (SNB-19 CNS): 4060 nM
GI50 (SK-MEL-5 melanoma): 1640 nM
TGI (SK-MEL-5 melanoma): 2990 nM
GI50 (CCRF-CEM leukemia): 758 nM
TGI (CCRF-CEM leukemia): 9330 nM
GI50 (DU-145 prostate): 1800 nM
TGI (DU-145 prostate): 3270 nM
